# Assay results from PubChem BioAssay AID489004 (Sanford-Burnham Center for Chemical Genomics, 2010).
# System: Jurkat NF-kB luciferase reporter, PMA/ionomycin, luminescence 16 h
# Assay: antigen receptor-induced NF-kB inhibitors, dose response, Jurkat, luciferase reporter, luminescence, B- and T-cell (AID 489004)
smiles,measurement,value
CC(=O)OC[C@]12CCC(C)=C[C@H]1O[C@@H]1[C@H](O)[C@@H](OC(C)=O)[C@@]2(C)[C@]12CO2,IC50,< 0.16 µM
